Measurements taken from patent publication US11331299B2, “Medicinal use of serrulatane diterpenes” (The University of Sydney, priority 2016, dated 2022).
Where two headings read alike, the source gives them in different places.

Tested on: 280 human cancer cell lines
Assay: OncoPanel cell proliferation assay (10-day)
Assay type: cell-based
Conditions: Homo sapiens; for GI50: read-out: Cell Count GI50; for IC50: read-out: Cell Count IC50; for EC50: read-out: Cell Count EC50
[1] = SJRH30, SJRH30, Soft Tissue - Sarcoma
[2] = SJSA-1, SJSA1, Soft Tissue - Osteosarcoma
[3] = SK-LMS-1, SK-LMS-1, Soft Tissue - Sarcoma
[4] = SK-MEL3, SK-MEL-3, Skin (Melanoma)
[5] = SK-MEL-1, SK-MEL-1, Skin (Melanoma)
[6] = SK-MEL-28, SK-MEL-28, Skin (Melanoma)
[7] = SK-OV-3, SKOV3, Female GU - Ovary
[8] = SK-UT-1, SK-UT-1, Soft Tissue - Sarcoma
[9] = SW579, SW579, Endocrine - Thyroid
[10] = SW684, SW684, Soft Tissue - Sarcoma

CC(C)=CCC[C@H](CO)[C@@H]1CC[C@@H](C)c2c1cc(C)c(O)c2O [Compound 1, 7,8,18-trihydroxyserrulat-14-ene]
GI50 (SH-4, Skin (Melanoma)): 1.94 µM | IC50 (SH-4, Skin (Melanoma)): 1.95 µM | EC50 (SHP77, SHP-77, Lung - SCLC): 0.89 µM | GI50 (SHP77, SHP-77, Lung - SCLC): 0.89 µM | IC50 (SHP77, SHP-77, Lung - SCLC): 0.9 µM | EC50 [1]: 1.42 µM | GI50 [1]: 1.41 µM | IC50 [1]: 1.42 µM | EC50 [2]: 1.41 µM | GI50 [2]: 1.41 µM | IC50 [2]: 1.41 µM | EC50 (SK-BR-3, SK-BR-3, Breast): 1.79 µM | GI50 (SK-BR-3, SK-BR-3, Breast): 1.76 µM | IC50 (SK-BR-3, SK-BR-3, Breast): 1.8 µM | EC50 [3]: 1.57 µM | GI50 [3]: 1.56 µM | IC50 [3]: 1.57 µM | EC50 [4]: 4.37 µM | GI50 [4]: 4.28 µM | IC50 [4]: 4.38 µM | EC50 [5]: 4.29 µM | GI50 [5]: 4.11 µM | IC50 [5]: 4.41 µM | EC50 [6]: 1.54 µM | GI50 [6]: 1.53 µM | IC50 [6]: 1.54 µM | EC50 (SK-MES-1, SKMES1, Lung - NSCLC): 1.06 µM | GI50 (SK-MES-1, SKMES1, Lung - NSCLC): 1.06 µM | IC50 (SK-MES-1, SKMES1, Lung - NSCLC): 1.06 µM | EC50 (SK-N-AS, CNS - Neuroblastoma): 3.58 µM | GI50 (SK-N-AS, CNS - Neuroblastoma): 3.54 µM | IC50 (SK-N-AS, CNS - Neuroblastoma): 3.58 µM | EC50 (SK-N-DZ, CNS - Neuroblastoma): 3.16 µM | GI50 (SK-N-DZ, CNS - Neuroblastoma): 2.94 µM | IC50 (SK-N-DZ, CNS - Neuroblastoma): 3.16 µM | EC50 (SK-N-FI, CNS - Neuroblastoma): 7.31 µM | GI50 (SK-N-FI, CNS - Neuroblastoma): 6.32 µM | IC50 (SK-N-FI, CNS - Neuroblastoma): 7.31 µM | EC50 [7]: 1.58 µM | GI50 [7]: 1.56 µM | IC50 [7]: 1.58 µM | EC50 (SK-PN-DW, Stomach): 4.66 µM | GI50 (SK-PN-DW, Stomach): 4.63 µM | IC50 (SK-PN-DW, Stomach): 4.66 µM | EC50 [8]: 2.23 µM | GI50 [8]: 2.22 µM | IC50 [8]: 2.23 µM | EC50 (SKO-007, SKO-007, Myeloma): 0.99 µM | GI50 (SKO-007, SKO-007, Myeloma): 0.93 µM | IC50 (SKO-007, SKO-007, Myeloma): 0.99 µM | EC50 (SNB-19, SNB-19, CNS - Glioma): 1.66 µM | GI50 (SNB-19, SNB-19, CNS - Glioma): 1.65 µM | IC50 (SNB-19, SNB-19, CNS - Glioma): 1.66 µM | EC50 (SNU1, SNU-1, Stomach): 1.25 µM | GI50 (SNU1, SNU-1, Stomach): 1.25 µM | IC50 (SNU1, SNU-1, Stomach): 1.25 µM | EC50 (SNU-5, SNU-5, Stomach): 3.92 µM | GI50 (SNU-5, SNU-5, Stomach): 3.87 µM | IC50 (SNU-5, SNU-5, Stomach): 3.92 µM | EC50 (SNU-16, SNU-16, Stomach): 1.31 µM | GI50 (SNU-16, SNU-16, Stomach): 1.31 µM | IC50 (SNU-16, SNU-16, Stomach): 1.31 µM | EC50 (SNU-423, SNU-423, Liver): 1.48 µM | GI50 (SNU-423, SNU-423, Liver): 1.46 µM | IC50 (SNU-423, SNU-423, Liver): 1.49 µM | EC50 (SR, Lymphoma): 3.8 µM | GI50 (SR, Lymphoma): 3.8 µM | IC50 (SR, Lymphoma): 3.8 µM | EC50 (ST486, ST486, Lymphoma): 1.09 µM | GI50 (ST486, ST486, Lymphoma): 1.08 µM | IC50 (ST486, ST486, Lymphoma): 1.09 µM | EC50 (SU-DHL10, SU-DHL-10, Lymphoma): 3.94 µM | GI50 (SU-DHL10, SU-DHL-10, Lymphoma): 3.93 µM | IC50 (SU-DHL10, SU-DHL-10, Lymphoma): 3.94 µM | EC50 (SU-DHL-4, SU-DHL-4, Lymphoma): 2.01 µM | GI50 (SU-DHL-4, SU-DHL-4, Lymphoma): 2.01 µM | IC50 (SU-DHL-4, SU-DHL-4, Lymphoma): 2.01 µM | EC50 (SU-DHL-5, SU-DHL-5, Lymphoma): 1.2 µM | GI50 (SU-DHL-5, SU-DHL-5, Lymphoma): 1.19 µM | IC50 (SU-DHL-5, SU-DHL-5, Lymphoma): 1.2 µM | EC50 (SU-DHL-8, SU-DHL-8, Lymphoma): 1.77 µM | GI50 (SU-DHL-8, SU-DHL-8, Lymphoma): 1.77 µM | IC50 (SU-DHL-8, SU-DHL-8, Lymphoma): 1.77 µM | EC50 (SU.86.86, SU.86.86, Pancreas): 7.61 µM | GI50 (SU.86.86, SU.86.86, Pancreas): 7.58 µM | IC50 (SU.86.86, SU.86.86, Pancreas): 7.63 µM | EC50 (SUP-T1, SUP-T1, Lymphoma): 3.96 µM | GI50 (SUP-T1, SUP-T1, Lymphoma): 3.95 µM | IC50 (SUP-T1, SUP-T1, Lymphoma): 3.96 µM | EC50 (SW48, SW48, Colon): 1.33 µM | GI50 (SW48, SW48, Colon): 1.32 µM | IC50 (SW48, SW48, Colon): 1.33 µM | EC50 [9]: 1.71 µM | GI50 [9]: 1.69 µM | IC50 [9]: 1.71 µM | EC50 [10]: 9.37 µM | GI50 [10]: 8.28 µM | IC50 [10]: 9.37 µM | EC50 (SW837, SW837, Colon): 2.35 µM | GI50 (SW837, SW837, Colon): 2.33 µM | IC50 (SW837, SW837, Colon): 2.37 µM
